Tests used:
Experiment in all cases: Tyrosine kinase activity inhibition rate in cell membrane fraction (Poly-Glu4-Tyr substrate)
Type in all cases: biochemical
[1] = system: tyrosine kinase in cell membrane fraction of HCC1806; details: for Inhibition rate: 25 μM kinase inhibitor, 25 μM ATP
Description: (§1) Breast cancer cell lines shown in Table 3 were cultured in a 150 mm dish so as to be about 80% confluent, the cells were recovered using PBS and a scraper, and a cell pellet was obtained by centrifugal operation (900×g, for 5 minutes, at 4° C.). The pellet was frozen with liquid nitrogen and stored at −80° C. until preparation of the measurement sample.
(§2) 500 μl of NP40 (−) solubilized buffer (20 mM HEPES (pH 7.4)), (w/v) % glycerol, 0.2% protease inhibitor cocktail (#P8340: Sigma-Aldrich (product composition: 104 mM AEBSF, 80 μM aprotinin, 4 mM bestatin, 1.4 mM E-64, 2 mM leupeptin, 1.5 mM Pepstatin A), 50 mM NaF and 200 μM Na3VO4) was added to the cell pellet, followed by stirring for 2 seconds three times using a vortex mixer. After being allowed to stand for 10 minutes, the soluble fraction was removed by centrifugal operation (at 20000×g, for 30 minutes, at 4° C.). The obtained pellet was resuspended in 500 μl of NP40 (−) solubilized buffer, the soluble fraction was again removed by centrifugal operation (at 20000×g, for 20 minutes, at 4° C.), and the pellet was washed. The pellet was resuspended by adding 500 μl of NP40 (+) solubilized buffer (a buffer prepared by adding NP-40 to the NP40 (−) solubilized buffer at a final concentration of 1%) to the pellet, pipetting fifty times, and vortexing for 2 seconds three times. After being allowed to stand for 10 minutes, a cell membrane fraction containing a membrane protein was obtained by centrifugal operation (at 20000×g, for 40 minutes, at 4° C.). The protein concentration of the fraction was measured by DC protein assay (#500-0116 JA: Bio-Rad) and the fraction was used as a sample for kinase activity measurement. The sample was frozen with liquid nitrogen and stored at −80° C. until used for the following kinase activity measurement.
(§3) NeutrAvidin Coated Plates (HBC) (96 white plate; #15509: Pierce) were washed three times with 300 μl of TBS-T (20 mM Tris-HCl (pH 7.4)), 150 mM NaCl, 0.1% Tween), and then 100 μl of Poly-Glu4-Tyr biotin conjugate (#12440: Upstate) which had been diluted to 1 μg/ml with TBS (20 mM Tris-HCl (pH 7.4), 150 mM NaCl) was added to the wells. After shaking at 37° C. and 400 rpm for 90 minutes, the wells were washed with 300 μl of TBS-T three times and a measuring plate was obtained.
(§4) The measurement sample was diluted with a kinase buffer (20 mM HEPES (pH 7.4), 25 mM MgCl2, 1.25 mM MnCl2, 250 μM Na3VO4, 12.5 (w/v) % glycerol) so as to adjust the protein concentration to 6.25 μg/ml. The diluted measurement sample was transferred to wells of a 96 well V bottom plate. A DMSO solution (inhibitor concentration: 5 mM) containing one type of tyrosine kinase inhibitors (Inhibitors 1 to 10 shown in Table 6) was added to the wells at a ratio of 1:160 based on the diluted measurement sample solution, followed by mixing thereof. As the control, DMSO was added to the diluted measurement sample at the same ratio as the solution of the inhibitor. The used tyrosine kinase inhibitors are represented as Inhibitors 1 to 10 in Table 6.
(§5) After addition of the inhibitors, a mixed solution of the measurement sample and the inhibitor was allowed to stand at room temperature for 10 minutes. 40 μl of the mixed solution was transferred to wells of the measuring plate and 10 μl of an ATP solution (20 mM HEPES (pH 7.4), […]) as the phosphate group donor was added to the wells.
(§6) The composition of the solution in the wells is as follows: protein concentration: 5 μg/ml, 20 mM HEPES (pH 7.4), 20 mM MgCl2, 1 mM MnCl2, 200 μM Na3VO4, 10 (w/v) % glycerol, 25 μM ATP, 25 μM kinase inhibitor.
(§7) After shaking the measuring plate at 37° C. and 400 rpm for 60 minutes, the solution was removed from the measuring plate, and the wells were washed with 300 μl of TBS-T three times. 100 μl of Starting Block T20 (TBS) (#37543: Pierce) as a blocking solution was added to the wells, followed by blocking at 37° C. and 400 rpm for 10 minutes. The blocking solution was removed from the measuring plate. […]

[2] = system: tyrosine kinase in cell membrane fraction of T47D; details: 25 μM kinase inhibitor, 25 μM ATP
Description: as §1, §2, §3, §4, §5, §6, §7

[3] = system: tyrosine kinase in cell membrane fraction of BT-20; details: for Inhibition rate: 25 μM kinase inhibitor, 25 μM ATP
Description: as §1, §2, §3, §4, §5, §6, §7

[4] = system: tyrosine kinase in cell membrane fraction of MCF7; details: for Inhibition rate: 25 μM kinase inhibitor, 25 μM ATP
Description: as §1, §2, §3, §4, §5, §6, §7

[5] = system: tyrosine kinase in cell membrane fraction of HCC1569; details: for Inhibition rate: 25 μM kinase inhibitor, 25 μM ATP
Description: as §1, §2, §3, §4, §5, §6, §7

[6] = system: tyrosine kinase in cell membrane fraction of MDA-MB-468; details: for Inhibition rate: 25 μM kinase inhibitor, 25 μM ATP
Description: as §1, §2, §3, §4, §5, §6, §7

[7] = system: tyrosine kinase in cell membrane fraction of HCC1428; details: for Inhibition rate: 25 μM kinase inhibitor, 25 μM ATP
Description: as §1, §2, §3, §4, §5, §6, §7

[8] = system: tyrosine kinase in cell membrane fraction of ZR-75-30; details: for Inhibition rate: 25 μM kinase inhibitor, 25 μM ATP
Description: as §1, §2, §3, §4, §5, §6, §7

[9] = system: tyrosine kinase in cell membrane fraction of UACC893; details: for Inhibition rate: UACC893, 25 μM kinase inhibitor, 25 μM ATP
Description: as §1, §2, §3, §4, §5, §6, §7

[10] = system: tyrosine kinase in cell membrane fraction of AU565; details: for Inhibition rate: 25 μM kinase inhibitor, 25 μM ATP
Description: as §1, §2, §3, §4, §5, §6, §7

[11] = system: tyrosine kinase in cell membrane fraction of MDA-MB-435S; details: for Inhibition rate: 25 μM kinase inhibitor, 25 μM ATP
Description: as §1, §2, §3, §4, §5, §6, §7

[12] = system: tyrosine kinase in cell membrane fraction of HCC1937; details: for Inhibition rate: 25 μM kinase inhibitor, 25 μM ATP
Description: as §1, §2, §3, §4, §5, §6, §7

[13] = system: tyrosine kinase in cell membrane fraction of MDA-MB-415; details: for Inhibition rate: 25 μM kinase inhibitor, 25 μM ATP
Description: as §1, §2, §3, §4, §5, §6, §7

[14] = system: tyrosine kinase in cell membrane fraction of MDA-MB-157; details: for Inhibition rate: 25 μM kinase inhibitor, 25 μM ATP
Description: as §1, §2, §3, §4, §5, §6, §7

[15] = system: tyrosine kinase in cell membrane fraction of HCC1954; details: for Inhibition rate: 25 μM kinase inhibitor, 25 μM ATP
Description: as §1, §2, §3, §4, §5, §6, §7

[16] = system: tyrosine kinase in cell membrane fraction of BT-549; details: for Inhibition rate: 25 μM kinase inhibitor, 25 μM ATP
Description: as §1, §2, §3, §4, §5, §6, §7

`Cc1[nH]c(/C=C2\C(=O)Nc3ccc(S(=O)(=O)N(C)c4cccc(Cl)c4)cc32)c(C)c1C(=O)N1CCN(C)CC1` [Inhibitor 9] was tested, and the Inhibition rate [1] was 77.3%, the Inhibition rate [2] was 42.5% and the Inhibition rate [3] was 51.4%. It also gave an Inhibition rate [4] of 64.3%, an Inhibition rate [5] of 67.0% and an Inhibition rate [6] of 65.0%. The Inhibition rate [7] was 47.5%, the Inhibition rate [8] was 65.1% and the Inhibition rate [9] was 56.9%. The Inhibition rate [10] was 55.6%, the Inhibition rate [11] was 80.3% and the Inhibition rate [12] was 52.6%. It also gave an Inhibition rate [13] of 56.7%, an Inhibition rate [14] of 56.8% and an Inhibition rate [15] of 65.7%. It also gave an Inhibition rate [16] of 81.4%.
`COc1cc2ncnc(Nc3ccc(Oc4ccccc4)cc3)c2cc1OC` [Inhibitor 10, 4-(4′-phenoxyanilino)-6,7-dimethoxyquinazoline] was tested, and the “Example 1 Inhibitory capacity of Src inhibitor” value (“Example 1 Inhibitory capacity” for short) [1] was “high (the term “high” means a cell line whose inhibition rate of the Src inhibitor is more than the threshold value)”, the Inhibition rate [1] was 67.1% and the Inhibition rate [2] was 42.3%. The “Example 1 Inhibitory capacity” value [3] was “high (the term “high” means a cell line whose inhibition rate of the Src inhibitor is more than the threshold value)”, the Inhibition rate [3] was 56.6% and the “Example 1 Inhibitory capacity” value [4] was “high (the term “high” means a cell line whose inhibition rate of the Src inhibitor is more than the threshold value)”. The Inhibition rate [4] was 49.2%, the “Example 1 Inhibitory capacity” value [5] was “high (the term “high” means a cell line whose inhibition rate of the Src inhibitor is more than the threshold value)” and the Inhibition rate [5] was 71.3%. For the same compound, the “Example 1 Inhibitory capacity” value [6] was “high (the term “high” means a cell line whose inhibition rate of the Src inhibitor is more than the threshold value)”, the Inhibition rate [6] was 81.0% and the “Example 1 Inhibitory capacity” value [7] was “high (the term “high” means a cell line whose inhibition rate of the Src inhibitor is more than the threshold value)”. For the same compound, the Inhibition rate [7] was 43.7%, the “Example 1 Inhibitory capacity” value [8] was “low (the term “low” means a cell line whose inhibition rate of the Src inhibitor is lower than the threshold value (=43.4%))” and the Inhibition rate [8] was 37.3%. The Inhibition rate [9] was 25.6%, the “Example 1 Inhibitory capacity” value ([9]; UACC-893) was “low (the term “low” means a cell line whose inhibition rate of the Src inhibitor is lower than the threshold value (=43.4%))” and the “Example 1 Inhibitory capacity” value [10] was “low (the term “low” means a cell line whose inhibition rate of the Src inhibitor is lower than the threshold value (=43.4%))”. The Inhibition rate [10] was 36.8%, the “Example 1 Inhibitory capacity” value [11] was “high (the term “high” means a cell line whose inhibition rate of the Src inhibitor is more than the threshold value)” and the Inhibition rate [11] was 44.9%. For the same compound, the “Example 1 Inhibitory capacity” value [12] was “high (the term “high” means a cell line whose inhibition rate of the Src inhibitor is more than the threshold value)”, the Inhibition rate [12] was 50.1% and the “Example 1 Inhibitory capacity” value [13] was “high (the term “high” means a cell line whose inhibition rate of the Src inhibitor is more than the threshold value)”. For the same compound, the Inhibition rate [13] was 68.6%, the “Example 1 Inhibitory capacity” value [14] was “high (the term “high” means a cell line whose inhibition rate of the Src inhibitor is more than the threshold value)” and the Inhibition rate [14] was 60.3%. The “Example 1 Inhibitory capacity” value [15] was “high (the term “high” means a cell line whose inhibition rate of the Src inhibitor is more than the threshold value)”, the Inhibition rate [15] was 46.5% and the “Example 1 Inhibitory capacity” value [16] was “high (the term “high” means a cell line whose inhibition rate of the Src inhibitor is more than the threshold value)”. The Inhibition rate [16] was 60.6%.
